From the supplement of paper PMC13380429

How the values were obtained:
Conditions in all cases: 72 h
Caco-2 [1] = test: cell viability relative to DMSO; higher = less toxic
Calu-3 [2] = test: as above
HepG2 [3] = test: as above
U2OS [4] = test: as above
Vero E6 [5] = test: as above
Caco-2 [6] = test: relative viability EC50 (midpoint between 100% and the lowest measured viability); higher = less toxic
Calu-3 [7] = test: as above
HepG2 [8] = test: as above
U2OS [9] = test: as above
Vero E6 [10] = test: as above
Caco-2 [11] = test: drug sensitivity score (DSS) for viability; higher = more toxic; extreme values may be limits of the assay
Calu-3 [12] = test: as above
HepG2 [13] = test: as above
U2OS [14] = test: as above
Vero E6 [15] = test: as above

| SMILES | cell viability (Caco-2 [1]; 1 nM) | cell viability (Caco-2 [1]; 10 nM) | cell viability (Caco-2 [1]; 100 nM) | cell viability (Caco-2 [1]; 1000 nM) | cell viability (Caco-2 [1]; 10000 nM) | cell viability (Calu-3 [2]; 1 nM) | cell viability (Calu-3 [2]; 10 nM) | cell viability (Calu-3 [2]; 100 nM) | cell viability (Calu-3 [2]; 1000 nM) | cell viability (Calu-3 [2]; 10000 nM) | cell viability (HepG2 [3]; 1 nM) | cell viability (HepG2 [3]; 10 nM) | cell viability (HepG2 [3]; 100 nM) | cell viability (HepG2 [3]; 1000 nM) | cell viability (HepG2 [3]; 10000 nM) | cell viability (U2OS [4]; 1 nM) | cell viability (U2OS [4]; 10 nM) | cell viability (U2OS [4]; 100 nM) | cell viability (U2OS [4]; 1000 nM) | cell viability (U2OS [4]; 10000 nM) | cell viability (Vero E6 [5]; 1 nM) | cell viability (Vero E6 [5]; 10 nM) | cell viability (Vero E6 [5]; 100 nM) | cell viability (Vero E6 [5]; 1000 nM) | cell viability (Vero E6 [5]; 10000 nM) | relative viability EC50 (Caco-2 [6]) | relative viability EC50 (Calu-3 [7]) | relative viability EC50 (HepG2 [8]) | relative viability EC50 (U2OS [9]) | relative viability EC50 (Vero E6 [10]) | drug sensitivity score (Caco-2 [11]) | drug sensitivity score (Calu-3 [12]) | drug sensitivity score (HepG2 [13]) | drug sensitivity score (U2OS [14]) | drug sensitivity score (Vero E6 [15]) |
| --- | --- | --- | --- | --- | --- | --- | --- | --- | --- | --- | --- | --- | --- | --- | --- | --- | --- | --- | --- | --- | --- | --- | --- | --- | --- | --- | --- | --- | --- | --- | --- | --- | --- | --- | --- |
| Oc1nc(O)c2nc(O)[nH]c2n1 [uric-acid] | 96.5% | 98% | 92.6% | 91% | 95.9% | 96% | 95.3% | 93.5% | 98.4% | 101% | 94.7% | 97.1% | 95.9% | 92.5% | 96% | 101% | 107% | 99.6% | 102% | 98.4% | 98% | 104% | 97.9% | 102% | 98.4% | > 10 µM | > 10 µM | > 10 µM | > 10 µM | > 10 µM | 0 | 0 | 0 | 0 | 0 |
| CC(C)NC[C@@H](O)c1ccc(O)c(O)c1 (racemic) [isoprenaline] | 96.5% | 90% | 89% | 92.9% | 93.9% | 93.6% | 104% | 94.4% | 92.3% | 98.2% | 109% | 98.6% | 96.5% | 100% | 101% | 96.8% | 98.9% | 95.5% | 99.7% | 103% | 101% | 97.6% | 101% | 107% | 79.8% | > 10 µM | > 10 µM | > 10 µM | > 10 µM | > 10 µM | 0 | 0 | 0 | 0 | 0.4 |
| CC(C)n1nc(-c2ccc3oc(N)nc3c2)c2c(N)ncnc21 [MLN0128] | 102% | 72% | 45.2% | 26.1% | 20.1% | 88.6% | 61.2% | 31.5% | 28.4% | 22.8% | 106% | 91.9% | 32.4% | 26.6% | 12.9% | 100% | 92.1% | 35% | 18.4% | 12% | 97.9% | 93.5% | 48.7% | 35.6% | 16.5% | 0.0309 µM | 0.0095 µM | 0.0449 µM | 0.049 µM | 0.0855 µM | 23.2 | 27.5 | 24.6 | 24.4 | 19.7 |
| O=C(NCCCN1CCOCC1)c1cnn2c(-c3ccccc3)cc(-c3ccccc3)nc12 [reversan] | 104% | 97% | 92.2% | 88.8% | 75.6% | 105% | 101% | 107% | 91.8% | 75.4% | 91.7% | 95.6% | 92.6% | 102% | 93.3% | 103% | 103% | 97.5% | 99.5% | 85.8% | 97.8% | 100% | 103% | 103% | 82.6% | > 10 µM | > 10 µM | > 10 µM | > 10 µM | > 10 µM | 1.8 | 2 | 0 | 0.2 | 0.3 |
| Cc1ccc([N+](=O)[O-])cc1S(=O)(=O)N(C)C | 91.7% | 88.7% | 94.2% | 96.1% | 99.2% | 97.2% | 92.8% | 94.8% | 107% | 105% | 95.7% | 104% | 93.1% | 99.1% | 102% | 103% | 99.7% | 103% | 92.6% | 99.9% | 92.8% | 97.9% | 95.6% | 93.1% | 108% | > 10 µM | > 10 µM | > 10 µM | > 10 µM | > 10 µM | 0 | 0 | 0 | 0 | 0 |
| CCOc1ccc(Nc2nc(-c3c(C)nc4ccccn34)cs2)cc1 [JK-184] | 102% | 96.9% | 91.3% | 57.4% | 33.2% | 101% | 90.5% | 103% | 57.6% | 39.4% | 94.9% | 99.5% | 90.6% | 86.9% | 40.1% | 106% | 100% | 79.9% | 26.9% | 19.7% | 98.3% | 97.6% | 77.8% | 31.3% | 29.5% | 0.578 µM | 0.715 µM | 1.68 µM | 0.209 µM | 0.152 µM | 9.2 | 8.3 | 5.3 | 16 | 15.5 |
| Cn1cc(C(=O)c2cccc3ccccc23)cc1C(=O)O [napirimus] | 99.3% | 92% | 95.4% | 96.5% | 85.6% | 98.7% | 104% | 100% | 101% | 104% | 101% | 97.9% | 103% | 99.8% | 94.8% | 104% | 100% | 101% | 98.3% | 98.4% | 92.9% | 99.7% | 95.2% | 105% | 99% | > 10 µM | > 10 µM | > 10 µM | > 10 µM | > 10 µM | 0 | 0 | 0 | 0 | 0 |
| Cn1nnc2c(C(N)=O)ncn2c1=O [temozolomide] | 90.3% | 97.3% | 96% | 106% | 99.3% | 97.6% | 106% | 102% | 94.5% | 98.6% | 112% | 99.6% | 104% | 93.5% | 114% | 98% | 103% | 92.3% | 96.8% | 95% | 99.4% | 97.5% | 95.9% | 98.2% | 102% | > 10 µM | > 10 µM | > 10 µM | > 10 µM | > 10 µM | 0 | 0 | 0 | 0 | 0 |
| O=S(=O)(NCCCCCCc1ccccc1)c1cccc2c(Cl)cccc12 [SC-9] | 91.8% | 89% | 87.2% | 101% | 94.5% | 102% | 108% | 102% | 96.8% | 101% | 105% | 96.6% | 103% | 108% | 119% | 94.6% | 97.9% | 92.7% | 97.4% | 99.5% | 99% | 101% | 96.8% | 102% | 107% | > 10 µM | > 10 µM | > 10 µM | > 10 µM | > 10 µM | 0 | 0 | 0 | 0 | 0 |
| CC(=O)Nc1cccc(-n2c(=O)n(C3CC3)c(=O)c3c(Nc4ccc(I)cc4F)n(C)c(=O)c(C)c32)c1 [trametinib] | 80.4% | 65.4% | 40.6% | 21.3% | 16% | 94.8% | 73.6% | 62% | 33.8% | 24.8% | 99.3% | 45.5% | 30.5% | 25.3% | 23.2% | 99.3% | 91.9% | 89.7% | 60.8% | 29.3% | 101% | 94.2% | 67.9% | 15.7% | 15.8% | 0.0156 µM | 0.0536 µM | 0.0064 µM | 0.695 µM | 0.129 µM | 26.5 | 19 | 30.5 | 9 | 19.2 |
| CCCN(C/C=C/I)[C@H]1CCc2ccc(O)cc2C1 [7-hydroxy-PIPAT] | 99.8% | 110% | 104% | 108% | 101% | 111% | 97.3% | 90.5% | 102% | 105% | 102% | 104% | 97.8% | 101% | 98.4% | 98% | 96.7% | 101% | 103% | 98.3% | 102% | 104% | 103% | 103% | 96% | > 10 µM | > 10 µM | > 10 µM | > 10 µM | > 10 µM | 0 | 0 | 0 | 0 | 0 |
| CN(C)CCOC(C)(c1ccccc1)c1ccccn1 (stereo not given) [doxylamine] | 106% | 97.6% | 98.6% | 98.1% | 104% | 98.6% | 105% | 98.6% | 106% | 108% | 102% | 101% | 101% | 106% | 99.8% | 104% | 100% | 103% | 98.4% | 101% | 99.5% | 102% | 100% | 100% | 99.6% | > 10 µM | > 10 µM | > 10 µM | > 10 µM | > 10 µM | 0 | 0 | 0 | 0 | 0 |
| COC(=O)N[C@H](C(=O)N1CC2(CC2)C[C@H]1c1nc(-c2ccc3c(c2)C(F)(F)c2cc(-c4ccc5[nH]c([C@@H]6[C@H]7CC[C@H](C7)N6C(=O)[C@@H](NC(=O)OC)C(C)C)nc5c4)ccc2-3)c[nH]1)C(C)C [ledipasvir] | 93.8% | 93.5% | 98.1% | 94.5% | 87.5% | 95.9% | 106% | 108% | 110% | 97.7% | 97% | 109% | 96.6% | 96.7% | 101% | 100% | 99% | 101% | 94.2% | 86.6% | 94.3% | 99.7% | 91.9% | 99.7% | 108% | > 10 µM | > 10 µM | > 10 µM | > 10 µM | > 10 µM | 0 | 0 | 0 | 0.5 | 0 |
| CN(C(=O)/C=C/c1ccoc1)[C@@H]1CC[C@@]2(O)[C@H]3Cc4ccc(O)c5c4[C@@]2(CCN3CC2CC2)[C@H]1O5 [nalfurafine] | 104% | 92.9% | 99% | 107% | 104% | 92.2% | 103% | 106% | 96.8% | 91.3% | 102% | 104% | 95.5% | 97.7% | 102% | 100% | 99.8% | 100% | 103% | 105% | 90.6% | 101% | 89.5% | 95.6% | 102% | > 10 µM | > 10 µM | > 10 µM | > 10 µM | > 10 µM | 0 | 0 | 0 | 0 | 0 |
